Results taken from patent US20240016785A1 (Delta 4 GmbH, priority 2020, published 2024).

Columns and labels:
[1] = test system: adriamycin induced nephropathy in BALB/c mice
Description: Control mice were injected with 0.9% saline. At least 6 mice were analyzed per group. Mice were monitored daily for signs of pain, altered movement, or reduced food uptake and sacrificed by cervical dislocation. Tested drugs were administered per oral administration via pre-mixed chow at drug doses based on literature research.
Urinary albumin levels were assessed by ELISA, urinary total protein and urinary creatinine levels were measured on the Roche Cobas system, using routine laboratory kits. Urinary protein/creatinine (UPCR) ratio and urinary albumin/creatinine ratio (UACR) were assessed at different time points. Weight and physical fitness scores were monitored on a daily basis. At the end of the experiment, tissue sections, plasma and urine samples were collected and stored until further analysis.
Repeated measures ANOVA across timepoints was calculated using the R statistical software framework.

[2] = test system: podocytes of animals with adriamycin induced nephropathy; conditions: animals treated with clopidogrel as in Example 2, vs untreated adriamycin nephropathy animals
[3] = test system: Adriamycin nephropathy in Balb/c mice
Description: Adriamycin (Doxorubicin; Sigma, D1515-10 mg) was diluted in ddH2O. To induce FSGS, a dose of 10.5 mg/kg mouse was injected i.v. into the tail vein using 27G needles, i. e. a total volume of 200 μl volume per 25 g mouse.
For tail vein injection, mice were anaesthetized using Ketanest (Pfizer, 25 mg/ml vials) and Rompun (Bayer, 20 mg/ml injection solution). A final mix of 12.5 mg/ml Ketanest and 0.25% Rompun in 0.9% NaCl solution was prepared and 200 μl/25 g mouse were injected.
Female Balb/c mice were obtained from the animal breeding facility of the Medical University (Abteilung kir Labortierkunde, Himberg, Austria). 12-16 weeks old animals with a weight >20 g were used for the experiments and adjusted for weight and age. Animals were allowed acclimatization of at least 7 days. Animals were marked by ear or toe clip codes to allow identification. Adriamycin nephropathy in Balb/c mice is the most commonly used animal model for preclinical FSGS studies and shares the central features with human FSGS.
Standard commercial chow from ssniff (ssniff Spezialdiaten GmbH, Soest, Germany) contained crude protein (19%), crude fat (3.3%), crude fiber (4.9%), crude ash (6.4%), starch (36.5%), sugar (4.7%). […] All animals were allowed to eat ad libitum assuming a daily average uptake of ˜4 grams/mouse (according to animal care guideline of the Johns Hopkins University,
Spot urine was collected every week and Creatinine and protein levels were measured.
Urinary albumin was measured by ELISA. 96-well plates were coated over night at 4° C. with 100 μl antibody solution Anti Mouse Serum Albumin antibody (Abcam ab34807, Lot GR3242102-4; diluted 1:2,000) in coating buffer (3.7 g NaHCO3; 0,64 g Na2CO3; 1L distilled water). The remaining procedure was performed at room temperature. Wells were washed 3× with HBSS (Sigma H8264-500 ML) +0,05% Tween-20 (Bio-Rad, #1706531) and blocked in ELISA/ELISPOT Diluent (eBioscience, 00-4202-56) and washed again for 3×. Samples and standard curve were both diluted in ELISA/ELISPOT diluent were incubated for 2 h, followed by 3 wash steps with HBSS+0,05% Tween-20, incubated with HRP antibody Anti Mouse Serum Albumin antibody (Abcam ab19195, Lot GR3242102-4; diluted 1:100,000) for 1 h, followed by 5 wash steps. Reaction was developed with TMB One Solution (Promega, G7431) and stopped with 2N H2SO4. Standard curves were generated with Mouse Albumin (Merck/Sigma, 126674-25MG). 450 nm absorbance was measured on an Epoch Microplate reader (BioTek) using GenS 1.10 software.
At the end of the experiment kidneys were removed, embedded in paraffin and PAS (Periodic acid-Schiff) staining was performed. Histology was thoroughly evaluated and the amount of sclerotic glomeruli and protein casts was quantified.
R version 4.0.2 was used for statistical analysis. Student's t-test was used for comparing UPCR and UACR values between samples from treated and control mice for each individual time point and to assess differences in histological parameters. Repeated measures ANOVA was performed to analyse the drug's impact on UPCR and UACR over time using the respective functions in the rstatix package (V0.6.0). ggplot2 (V3.3.2) and ggpubr (V0.4.0) packages were used for generating the graphical visualizations.
In two independent experiments (Experiment 1 and 2), 34 female Balb/c mice were injected with 10.5 mg/kg adriamycin into the tail vein (see table 2). […] Spot urine was collected weekly, kidneys were harvested at sacrifice. 10.5 mg/kg Adriamycin were injected into the tail vein. […] Urine was collected and weight was measured weekly. The experiments lasted about 5 weeks.

**Q.** Which results are given for `COC(=O)[C@H](c1ccccc1Cl)N1CCc2sccc2C1` [Clopidogrel, (S)-Methyl-(2-chlorphenyl)-2-(6,7-dihydro-4H-thieno[3,2-c]pyridin-5-yl)acetate]?
**A.** UPCR at 37 days after start, compared with Ctrl mice ([1]; FIG. 1, mice could recover from Adriamycin induced FSGS in this experiment): reduced to similar levels; effect of drug administration on UPCR, repeated measures ANOVA across timepoints ([1]; adriamycin approx. 9 mg/kg, drug via pre-mixed chow, p=0.009 (drug)): significant; podocyte injury (podocytopathy) by electron microscopy [2]: significantly reduced podocyte injury; glomerular sclerosis index (sclerotic glomeruli of all glomeruli), highest reached in any sample ([3]; PAS staining, untreated control group went up to 35%): ≤ 4%; reduction of UPCR (urinary protein to creatinine ratio) ([3]; both experiments together, average across all time points, chow + 200 mg/kg Clopidogrel (~25-30 mg/kg mouse/day) from 48 h after adriamycin 10.5 mg/kg i.v., vs control mice): 49%; reduction of UACR (urinary albumin to creatinine ratio) ([3]; both experiments together, average across all time points, chow + 200 mg/kg Clopidogrel, vs control mice): 61%; average histopathological damage score ([3]; clopidogrel-treated group, control average 2.67, p=0.038): 0.86; severe disease (glomerular sclerosis) ([3]; histopathology, FIG. 8A, B): completely prevented severe disease; reduction of ADR-associated weight loss ([3]; overall, both experiments, weight measured weekly, vs control mice): 48%; tubular ectasia, determined by protein cylinders in PAS staining ([3]; vs control group, FIG. 8C): strongly ameliorated; weight loss compared to control mice ([3]; weekly over the course of the experiments): less weight loss
